Two molecules from patent US20240092756A1, “METHODS AND COMPOSITION FOR KRAS MODIFICATIONS” (2692372 ONTARIO, INC., priority 2020, published 2024) can be followed below.

The structures appear in SMILES notation.

The test system of test [1] is phospho-ERK1/2 in MIA PaCa-2 cells (express KRAS G12C). Briefly: ERK1/2 phosphorylation in MIA PaCa-2 cells. The format is cell-based, human. Set-up: key: X: KRAS G12C bound and modulated in cells.
In test [2] the target is T1, KRAS G12C (SEQ ID NO:1 or SEQ ID NO:2) (Homo sapiens, UniProt P01116, G12C).
T1 construct: purchased
Briefly: Intact mass analysis (LC-MS) of covalent modification, KRAS G12C. The test is classed as binding. Set-up: key to KRAS G12C Modification: b: KRAS G12C modified. The following applies: intact mass spectrometry; covalent modification of KRAS G12C FL. As for the experimental part:
The covalent modification of the proteins with the compounds were evaluated using intact mass analysis by liquid chromatography-mass spectrometry instrument (LC-MS/MS).
The reaction solution (20 μL) was prepared in 96-well plate and contained the protein (2 μM), the compound (100 μM), HEPES buffer (20 mM, pH 8), 2% DMSO, 2% glycerol, and 150 mM NaCl. The reaction was allowed to proceed for 24 h at 25° C. The reaction solution (1 μL) was injected into the LC/MS/MS without any further sample preparation.
The LC-MS/MS instrument comprises of a Waters G2-XS quadrupole-time of flight (QTof) mass spectrometer and a Waters Acuity I-class Ultra-High Performance Liquid Chromatography (UPLC) system. The I-class UPLC system includes a binary solvent manager (BSM), and an Acquity sample manager (SM). The mobile phase consisted of: A) 0.1% (v/v) formic acid in MilliQ water; B) 0.1% (v/v) formic acid acetonitrile. Gradients were run over 5 min and proceeded as follows: A:B, 85:15, 0.0-0.7 min, 85:15→15:85, 0.7-1.5 min, 10:90, 1.5-4 min, 10:90→85:15, 4-4.5 min, 85:15, 4.5-5 min. The analytical column was a Waters BEH C4 column 1.7 μm (50×1 mm) column with pore sizes of 300 Å. The TOF MS data was collected in positive ion mode (m/z of 400-2000 Da) using MassLynx software (Waters).
The spectral deconvolution was performed using UNIFI software (Waters). The added mass of the protein upon covalent modification to cysteine residues were specified. Multiple modification of up to 8 cysteine was allowed. All the adducts with signal intensities of <2% of the base peak were ignored. The % modification was calculated as the adduct signal intensity over the total intensities of the protein peaks and the adducts.

A further test deals with KRAS G12C (Homo sapiens, UniProt P01116, G12C). Briefly: Differential scanning fluorimetry, KRAS G12C. Set-up: purchased; key: Y: protein destabilized; N: protein not destabilized. The following applies: 37° C. 5 hours incubation. The format is binding. As for the experimental part: KRas proteins at 0.05 mg/ml in buffer Hepes, 147 mM NaCl, 2% glycerol, 5 mM MgCl2, 1 mM EDTA, 10 μM GDP, pH 8.0 were incubated in the presence desired concentration of compounds (5% DMSO final concentration) at 37° C. for 5 hours. After incubation, Sypro Oange to a final concentration of 5× was added to each sample. 20 μl aliquots of samples were transferred PCR tubes, sealed with caps, and run in a BioRad CFX96 RTPCR thermocycler. In the instrument, the samples were heated at a rate of 1° C./min from 25 to 90 degrees. Fluorescence readings were taken every 1 degree. The data generated was exported and analyzed using GraphPad-Prism software. The denaturation curves were fit using a Boltzmann sigmoidal equation to calculate melting temperatures (Tm).
On the technique in general: In DSF a fluorescence change marks the thermal transition of the protein.

Regarding `Cc1ccnc(C(C)C)c1-n1c(=O)nc(NC2CN(S(=O)(=O)c3c(F)c(F)c(F)c(F)c3C(F)(F)F)C2)c2cc(F)c(Cl)nc21` [Compound 14A, 7-chloro-6-fluoro-1-(2-isopropyl-4-methylpyridin-3-yl)-4-((1-((2,3,4,5-tetrafluoro-6-(trifluoromethyl)phenyl)sulfonyl)azetidin-3-yl)amino)pyrido[2,3-d]pyrimidin-2(1H)-one], the “pERK - MIA PaCa-2 - (6 hours, 5 uM)” value in test [1] is reported as “X”. Further, the “KRAS G12C Modification” value in test [2] was “b”. Moreover, the “KRAS G12C DSF ΔTm” value at KRAS G12C is “Y”.
Taken in the same sequence, the figures for `Cc1ccnc(C(C)C)c1-n1c(=O)nc(NC2CN(S(=O)(=O)c3c(F)c(F)c(F)c(F)c3C(F)(F)F)C2)c2cc(F)c(-c3c(O)cccc3F)nc21` [Compound 15A, 6-fluoro-7-(2-fluoro-6-hydroxyphenyl)-1-(2-isopropyl-4-methylpyridin-3-yl)-4-((1-((2,3,4,5-tetrafluoro-6-(trifluoromethyl)phenyl)sulfonyl)azetidin-3-yl)amino)pyrido[2,3-d]pyrimidin-2(1H)-one] were “X”, “b” and “Y”.
